Measured values published in BigSolDB 2.1.

C[n+]1ccn(CCOCCn2cc[n+](C)c2)c1.F[P-](F)(F)(F)(F)F.F[P-](F)(F)(F)(F)F
solubility (mole fraction)
Conditions	in acetone	in acetonitrile	in ethanol	in methanol	in water
283 K	0.0599	0.0726	3.2e-05	0.000171	0.000118
288 K	0.061	0.0749	3.8e-05	0.000234	0.000157
293 K	0.0621	0.0775	4.7e-05	0.000298	0.00021
298 K	0.0631	0.0802	5.6e-05	0.000376	0.000271
303 K	0.0641	0.0834	6.9e-05	0.000464	0.000345
